This is an account of results in BindingDB's records for doi:10.1021/jm00102a002 (Bristol-Myers Squibb, 1993).

One assay has as its target D(2) dopamine receptor (Rattus norvegicus, UniProt P61169). In words: ChEBML_61741.
In assay [1] the target is Serotonin 2 (5-HT2) receptor (Rattus norvegicus, UniProt P08909+P14842+P30994). In words: ChEBML_1935. The text has this: Inhibitory concentration against radioligand [3H]spiperone binding to 5-hydroxytryptamine 2 receptor in rat cortex
Serotonin 2 (5-HT2) receptor, sequence (P14842 whole entry): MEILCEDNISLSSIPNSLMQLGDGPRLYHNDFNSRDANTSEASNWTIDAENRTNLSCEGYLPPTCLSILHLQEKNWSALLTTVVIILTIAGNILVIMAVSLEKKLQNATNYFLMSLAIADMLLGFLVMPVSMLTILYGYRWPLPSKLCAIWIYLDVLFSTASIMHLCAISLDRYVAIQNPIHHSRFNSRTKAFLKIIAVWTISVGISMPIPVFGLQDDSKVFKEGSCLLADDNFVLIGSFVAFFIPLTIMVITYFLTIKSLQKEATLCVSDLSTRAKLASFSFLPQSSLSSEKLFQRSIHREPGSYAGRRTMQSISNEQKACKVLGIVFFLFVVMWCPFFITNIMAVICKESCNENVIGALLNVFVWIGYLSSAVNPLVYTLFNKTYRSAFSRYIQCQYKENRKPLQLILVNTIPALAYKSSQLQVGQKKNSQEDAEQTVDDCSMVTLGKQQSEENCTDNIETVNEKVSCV
Serotonin 2 (5-HT2) receptor, sequence (P08909 whole entry): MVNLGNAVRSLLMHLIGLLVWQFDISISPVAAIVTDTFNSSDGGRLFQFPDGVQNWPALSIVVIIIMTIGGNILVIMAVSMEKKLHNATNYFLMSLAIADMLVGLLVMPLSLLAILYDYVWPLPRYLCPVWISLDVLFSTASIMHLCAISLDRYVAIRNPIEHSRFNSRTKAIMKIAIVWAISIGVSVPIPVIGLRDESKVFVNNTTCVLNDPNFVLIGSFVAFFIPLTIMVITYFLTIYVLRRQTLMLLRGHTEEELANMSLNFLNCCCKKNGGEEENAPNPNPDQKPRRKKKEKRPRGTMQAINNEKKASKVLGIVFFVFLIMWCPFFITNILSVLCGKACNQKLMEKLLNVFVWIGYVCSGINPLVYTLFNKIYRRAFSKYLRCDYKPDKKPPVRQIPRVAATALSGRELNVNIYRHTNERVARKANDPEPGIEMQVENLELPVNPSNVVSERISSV
Serotonin 2 (5-HT2) receptor, sequence (P30994 whole entry): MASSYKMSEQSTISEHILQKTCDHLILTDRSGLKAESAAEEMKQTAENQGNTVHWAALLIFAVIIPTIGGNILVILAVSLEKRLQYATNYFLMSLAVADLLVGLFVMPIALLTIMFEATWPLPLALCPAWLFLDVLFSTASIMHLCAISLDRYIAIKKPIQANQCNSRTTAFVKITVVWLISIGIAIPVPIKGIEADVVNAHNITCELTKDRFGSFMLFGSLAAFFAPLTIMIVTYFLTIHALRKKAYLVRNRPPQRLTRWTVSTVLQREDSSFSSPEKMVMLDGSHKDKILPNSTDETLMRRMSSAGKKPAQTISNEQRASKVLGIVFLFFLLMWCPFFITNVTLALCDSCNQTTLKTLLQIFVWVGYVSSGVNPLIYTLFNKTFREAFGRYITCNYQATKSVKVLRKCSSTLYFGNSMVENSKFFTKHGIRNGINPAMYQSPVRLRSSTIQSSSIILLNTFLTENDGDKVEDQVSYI

D(2) dopamine receptor, sequence (P61169 whole entry): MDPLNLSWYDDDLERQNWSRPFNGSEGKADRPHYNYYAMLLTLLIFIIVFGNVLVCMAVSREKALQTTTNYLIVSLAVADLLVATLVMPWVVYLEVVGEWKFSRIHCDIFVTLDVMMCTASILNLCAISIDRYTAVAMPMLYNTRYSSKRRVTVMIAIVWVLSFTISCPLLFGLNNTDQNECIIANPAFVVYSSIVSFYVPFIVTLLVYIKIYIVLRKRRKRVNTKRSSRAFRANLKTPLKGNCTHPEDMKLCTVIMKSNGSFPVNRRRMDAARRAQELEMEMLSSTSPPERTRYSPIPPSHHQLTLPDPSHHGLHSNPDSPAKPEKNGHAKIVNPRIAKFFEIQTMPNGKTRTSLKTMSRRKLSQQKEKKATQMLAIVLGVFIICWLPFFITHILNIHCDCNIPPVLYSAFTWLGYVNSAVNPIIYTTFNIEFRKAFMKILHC
Text for D(2) dopamine receptor: Inhibitory concentration against radioligand [3H]spiperone binding to rat striatal Dopamine receptor D2

Broadly, the IC50 is the midpoint of a concentration-inhibition curve. Low values mean greater potency in that assay, high ones weaker potency in that assay. As for `OC(CCCN1CCN(c2ncc(F)cn2)CC1)c1ccc(F)cc1` (configuration not stated) [1-(4-fluorophenyl)-4-(4-(5-fluoropyrimidin-2-yl)piperazin-1-yl)butan-1-ol], the IC50 against D(2) dopamine receptor was found to be 6.43 µM; in assay [1] it was 1.7 µM.
